Data taken from PubChem BioAssay AID1963839 (Molecular Pharmacology Branch, DTP, NCI, 2024).

Tested on: 817829-284-R-J1-PDC complex spheroid viability
Test: Anticancer human tumor 817829-284-R-J1-PDC patient-derived colon adenocarcinoma cell line growth inhibition [POLQ]
Conditions: for IC50: curve of first compound; for viability, T/C: stronger effect = lower value
In short: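 PDC + HUVEC + MSC complex spheroids; POLQ inhibitors ± partner drugs; top conc. at/near clinical Cmax, else 10 microM (SN-38 1 microM), half-log dilutions; 37 degrees C, 5% CO2.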

[1] = second compound 0.0316 µM, first compound 0.0316 µM
[2] = second compound 0.0316 µM, first compound 0.1 µM
[3] = second compound 0.0316 µM, first compound 0.316 µM
[4] = second compound 0.0316 µM, first compound 1 µM
[5] = second compound 0.0316 µM, first compound 3.16 µM
[6] = second compound 0.0316 µM, first compound 10 µM
[7] = second compound 0.1 µM, first compound 0.0316 µM
[8] = second compound 0.1 µM, first compound 0.1 µM
[9] = second compound 0.1 µM, first compound 0.316 µM
[10] = second compound 0.1 µM, first compound 1 µM
[11] = second compound 0.1 µM, first compound 3.16 µM
[12] = second compound 0.1 µM, first compound 10 µM
[13] = second compound 0.316 µM, first compound 0.0316 µM
[14] = second compound 0.316 µM, first compound 0.1 µM
[15] = second compound 0.316 µM, first compound 0.316 µM
[16] = second compound 0.316 µM, first compound 1 µM
[17] = second compound 0.316 µM, first compound 3.16 µM
[18] = second compound 0.316 µM, first compound 10 µM
[19] = second compound 1 µM, first compound 0.0316 µM
[20] = second compound 1 µM, first compound 0.1 µM
[21] = second compound 1 µM, first compound 0.316 µM
[22] = second compound 1 µM, first compound 1 µM
[23] = second compound 1 µM, first compound 3.16 µM
[24] = second compound 1 µM, first compound 10 µM
[25] = second compound 3.16 µM, first compound 0.0316 µM
[26] = second compound 3.16 µM, first compound 0.1 µM
[27] = second compound 3.16 µM, first compound 0.316 µM
[28] = second compound 3.16 µM, first compound 1 µM
[29] = second compound 3.16 µM, first compound 3.16 µM
[30] = second compound 3.16 µM, first compound 10 µM
[31] = second compound 10 µM, first compound 0.0316 µM
[32] = second compound 10 µM, first compound 0.1 µM
[33] = second compound 10 µM, first compound 0.316 µM
[34] = second compound 10 µM, first compound 1 µM
[35] = second compound 10 µM, first compound 3.16 µM
[36] = second compound 10 µM, first compound 10 µM
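Also: spheroids exposed to compounds for 7 days.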
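For viability, T/C in this document: 100% = DMSO vehicle-treated spheroids.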

CC(=O)O[C@H]1C(=O)[C@@]2(C)[C@H]([C@H](OC(=O)c3ccccc3)[C@]3(O)C[C@H](OC(=O)[C@H](O)[C@@H](NC(=O)c4ccccc4)c4ccccc4)C(C)=C1C3(C)C)[C@]1(OC(C)=O)CO[C@@H]1C[C@@H]2O + Cc1cccc(N(C)C(=O)C2C(O)CCN2c2nc(C)cc(C(F)(F)F)c2C#N)c1
IC50 (second compound 0.0316 µM): < 0.00949 µM
IC50 (second compound 0.1 µM): < 0.00949 µM
IC50 (second compound 0.316 µM): < 0.00949 µM
IC50 (second compound 1 µM): < 0.00949 µM
IC50 (second compound 3.16 µM): < 0.00949 µM
IC50 (second compound 10 µM): < 0.00949 µM
viability, T/C (second compound 0.0316 µM, first compound 0.00949 µM): 4.71%
viability, T/C (second compound 0.0316 µM, first compound 0.03 µM): 4.06%
viability, T/C (second compound 0.0316 µM, first compound 0.0949 µM): 3.84%
viability, T/C (second compound 0.0316 µM, first compound 0.3 µM): 3.78%
viability, T/C (second compound 0.0316 µM, first compound 0.949 µM): 3.98%
viability, T/C (second compound 0.0316 µM, first compound 3 µM): 4.66%
viability, T/C (second compound 0.1 µM, first compound 0.00949 µM): 4.94%
viability, T/C (second compound 0.1 µM, first compound 0.03 µM): 4.36%
viability, T/C (second compound 0.1 µM, first compound 0.0949 µM): 3.84%
viability, T/C (second compound 0.1 µM, first compound 0.3 µM): 4.37%
viability, T/C (second compound 0.1 µM, first compound 0.949 µM): 4.32%
viability, T/C (second compound 0.1 µM, first compound 3 µM): 4.51%
viability, T/C (second compound 0.316 µM, first compound 0.00949 µM): 4.66%
viability, T/C (second compound 0.316 µM, first compound 0.03 µM): 4.72%
viability, T/C (second compound 0.316 µM, first compound 0.0949 µM): 4.39%
viability, T/C (second compound 0.316 µM, first compound 0.3 µM): 4.37%
viability, T/C (second compound 0.316 µM, first compound 0.949 µM): 4.24%
viability, T/C (second compound 0.316 µM, first compound 3 µM): 3.51%
viability, T/C (second compound 1 µM, first compound 0.00949 µM): 4.57%
viability, T/C (second compound 1 µM, first compound 0.03 µM): 8.02%
viability, T/C (second compound 1 µM, first compound 0.0949 µM): 4.15%
viability, T/C (second compound 1 µM, first compound 0.3 µM): 4.37%
viability, T/C (second compound 1 µM, first compound 0.949 µM): 4.04%
viability, T/C (second compound 1 µM, first compound 3 µM): 4.46%
viability, T/C (second compound 3.16 µM, first compound 0.00949 µM): 4.41%
viability, T/C (second compound 3.16 µM, first compound 0.03 µM): 3.99%
viability, T/C (second compound 3.16 µM, first compound 0.0949 µM): 4.51%
viability, T/C (second compound 3.16 µM, first compound 0.3 µM): 4.14%
viability, T/C (second compound 3.16 µM, first compound 0.949 µM): 3.93%
viability, T/C (second compound 3.16 µM, first compound 3 µM): 3.87%
viability, T/C (second compound 10 µM, first compound 0.00949 µM): 4.67%
viability, T/C (second compound 10 µM, first compound 0.03 µM): 3.97%
viability, T/C (second compound 10 µM, first compound 0.0949 µM): 4.2%
viability, T/C (second compound 10 µM, first compound 0.3 µM): 4.14%
viability, T/C (second compound 10 µM, first compound 0.949 µM): 4.11%
viability, T/C (second compound 10 µM, first compound 3 µM): 4.13%

COc1cccc2c1C(=O)c1c(O)c3c(c(O)c1C2=O)CC(O)(C(=O)CO)CC3OC1CC(N)C(O)C(C)O1 (stereo unspecified) + Cc1cccc(N(C)C(=O)C2C(O)CCN2c2nc(C)cc(C(F)(F)F)c2C#N)c1
IC50 (second compound 0.0316 µM): < 0.0316 µM
IC50 (second compound 0.1 µM): < 0.0316 µM
IC50 (second compound 0.316 µM): < 0.0316 µM
IC50 (second compound 1 µM): < 0.0316 µM
IC50 (second compound 3.16 µM): < 0.0316 µM
IC50 (second compound 10 µM): < 0.0316 µM
viability, T/C [1]: 20.6%
viability, T/C [2]: 18.4%
viability, T/C [3]: 6.01%
viability, T/C [4]: 0.9%
viability, T/C [5]: 0.17%
viability, T/C [6]: 0.48%
viability, T/C [7]: 21.8%
viability, T/C [8]: 15.9%
viability, T/C [9]: 7.06%
viability, T/C [10]: 0.26%
viability, T/C [11]: 0.22%
viability, T/C [12]: 0.58%
viability, T/C [13]: 20.2%
viability, T/C [14]: 17.8%
viability, T/C [15]: 6.56%
viability, T/C [16]: 0.38%
viability, T/C [17]: 0.19%
viability, T/C [18]: 0.58%
viability, T/C [19]: 21.2%
viability, T/C [20]: 14.6%
viability, T/C [21]: 6.03%
viability, T/C [22]: 0.54%
viability, T/C [23]: 0.29%
viability, T/C [24]: 0.51%
viability, T/C [25]: 20.1%
viability, T/C [26]: 17.9%
viability, T/C [27]: 3.35%
viability, T/C [28]: 0.34%
viability, T/C [29]: 0.32%
viability, T/C [30]: 0.6%
viability, T/C [31]: 17.4%
viability, T/C [32]: 12.3%
viability, T/C [33]: 4.14%
viability, T/C [34]: 0.48%
viability, T/C [35]: 0.3%
viability, T/C [36]: 0.5%

O=c1[nH]cc(F)c(=O)[nH]1 + Cc1cccc(N(C)C(=O)C2C(O)CCN2c2nc(C)cc(C(F)(F)F)c2C#N)c1
IC50 (second compound 0.0316 µM): 1.98 µM
IC50 (second compound 0.1 µM): 3.12 µM
IC50 (second compound 0.316 µM): > 10 µM
IC50 (second compound 1 µM): 3.1 µM
IC50 (second compound 3.16 µM): 3.65 µM
IC50 (second compound 10 µM): 2.53 µM
viability, T/C [1]: 98.2%
viability, T/C [2]: 119%
viability, T/C [3]: 68.2%
viability, T/C [4]: 72.5%
viability, T/C [5]: 34.8%
viability, T/C [6]: 38.9%
viability, T/C [7]: 91.4%
viability, T/C [8]: 126%
viability, T/C [9]: 110%
viability, T/C [10]: 75.4%
viability, T/C [11]: 55.9%
viability, T/C [12]: 42.1%
viability, T/C [13]: 92.1%
viability, T/C [14]: 98%
viability, T/C [15]: 106%
viability, T/C [16]: 74.4%
viability, T/C [17]: 55.4%
viability, T/C [18]: 45.8%
viability, T/C [19]: 72.5%
viability, T/C [20]: 118%
viability, T/C [21]: 98.8%
viability, T/C [22]: 75.1%
viability, T/C [23]: 52.7%
viability, T/C [24]: 39.9%
viability, T/C [25]: 89.9%
viability, T/C [26]: 112%
viability, T/C [27]: 102%
viability, T/C [28]: 77%
viability, T/C [29]: 54.7%
viability, T/C [30]: 36.3%
viability, T/C [31]: 101%
viability, T/C [32]: 91.8%
viability, T/C [33]: 94.1%
viability, T/C [34]: 60.4%
viability, T/C [35]: 52%
viability, T/C [36]: 42.6%
